Assay results published in patent US20240245793A1, “PSD-95 INHIBITORS AND USES THEREOF” (priority 2021, published 2024).
Where two headings read alike, the source gives them in different places.

System: HeLa cells stably expressing HaloGFP
Experiment: Chloroalkane penetration assay (CAPA), membrane permeability and cellular uptake
Format: cell-based
Description: Since PSD-95 is located intracellularly, it is essential for any drug targeting PSD-95 to efficiently cross the cell membrane. To assess the cellular permeability and delivery to the cytosol of the compounds as defined herein, the cellular chloroalkane penetration assay (CAPA) may be used (Peraro et al. 2018). This assay takes advantage of a modified haloalkane dehalogenase designed to covalently bind chloroalkane (CA) molecules. A HeLa cell line expressing a fusion protein comprising a HaloTag, a green fluorescent protein (GFP) and a mitochondria-targeting peptide is used to report cytosolic delivery. The general format of the CAPA is a pulse-chase assay (Deprey & Kritzer, 2020). Cells expressing the HaloTag enzyme are incubated with CA-tagged peptides. When these CA-peptides penetrate the cell membrane and reach the cytosol, they will bind to and react with the HaloTag (pulse step). Following a washing step, the cells are incubated with a CA-tagged dye that quantitatively penetrates the cell membrane and reacts with remaining unreacted HaloTag sites (chase step). Flow cytometry is used to measure the fluorescence intensity of the cells and the measured fluorescence is inversely proportional to the amount of CA-peptides that reach the penetrated the cells and can thus be used to assess cytosolic delivery. The obtained data is commonly expressed as CP50 values, the concentration at which 50% cell penetration is observed. The CP50 value of a compound may be measured as described in example 4.
The membrane permeability of compounds 10 to 75 was determined in HeLa cells stably expressing HaloGFP exclusively located in the cytosol. Cells were seeded at a density of 40.000 cells/well one day prior to the experiment. After the growth media was aspirated and replaced by 100 μL of Opti-MEM, 25 μL of a prepared serial dilution of the ligand in Opti-MEM was added to the cells (constant DMSO concentration), and the plate was incubated for 4 h at 37° C. and 5% CO2. The contents of the wells were aspirated, and cells were washed with fresh Opti-MEM for 15 min. After aspiration of the wash, the cells were incubated with TAMRA-CA (5 μM) for 15 min. After aspiration of the chase solution, cells were washed with Opti-MEM for 30 min. Following removal of the wash, cells were trypsinized, resuspended in PBS (2% FBS), and analyzed using a benchtop flow cytometer. Using no ligand and no TAMRA-CA control well, the obtained fluorescence intensity data was normalized and plotted as dose-response curves. Reported CP50 values represent half-maximum red fluorescence which behaves inverse to cell penetration of the ligand.

Compound | CP50 [µM] | CP50 (CA-tagged NPEG4-(IETDV)2 with various CPP-tags, 4 h at 37° C., mean ± SEM (Table 11, FIG. 8)) [µM] | CP50 (CA-tagged ligands, 4 h at 37° C., L-TAT and L-Arg9, mean ± SEM (Table 10, FIG. 7)) [µM]
CC(C)C[C@H](NC(=O)[C@@H](NC(=O)[C@H](CCC(=O)O)NC(=O)[C@H](CCCCN)NC(=O)CCOCCOCCN(CCOCCOCCC(=O)N[C@@H](CCCCN)C(=O)N[C@@H](CCC(=O)O)C(=O)N[C@H](C(=O)N[C@@H](CC(C)C)C(=O)N[C@H](C(=O)O)C(C)C)[C@@H](C)O)C(=O)[C@H](CCCNC(=N)N)NC(=O)[C@H](CCCNC(=N)N)NC(=O)[C@H](CCCNC(=N)N)NC(=O)[C@H](CCCNC(=N)N)NC(=O)[C@H](CCCNC(=N)N)NC(=O)[C@H](CCCNC(=N)N)NC(=O)[C@H](CCCNC(=N)N)NC(=O)CCC(=O)NCCOCCOCCCCCCCl)[C@@H](C)O)C(=O)N[C@H](C(=O)O)C(C)C [Compound 68] | 0.58 ± 0.09 |  | 
CC[C@H](C)[C@H](NC(=O)CCOCCOCCN(CCOCCOCCC(=O)N[C@H](C(=O)N[C@@H](CCC(=O)O)C(=O)N[C@H](C(=O)N[C@@H](CC(=O)O)C(=O)N[C@H](C(=O)O)C(C)C)[C@@H](C)O)[C@@H](C)CC)C(=O)[C@H](CCCNC(=N)N)NC(=O)[C@H](CCCNC(=N)N)NC(=O)[C@H](CCCNC(=N)N)NC(=O)[C@H](CCC(N)=O)NC(=O)[C@H](CCCNC(=N)N)NC(=O)[C@H](CCCNC(=N)N)NC(=O)[C@H](CCCCN)NC(=O)[C@H](CCCCN)NC(=O)[C@H](CCCNC(=N)N)NC(=O)CNC(=O)[C@H](Cc1ccc(O)cc1)NC(=O)CCC(=O)NCCOCCOCCCCCCCl)C(=O)N[C@@H](CCC(=O)O)C(=O)N[C@H](C(=O)N[C@@H](CC(=O)O)C(=O)N[C@H](C(=O)O)C(C)C)[C@@H](C)O [Compound 10] |  | 55.1 ± 3.0 | 55.1 ± 3.0
CC[C@H](C)[C@H](NC(=O)CCOCCOCCN(CCOCCOCCC(=O)N[C@H](C(=O)N[C@@H](CCC(=O)O)C(=O)N[C@H](C(=O)N[C@@H](CC(=O)O)C(=O)N[C@H](C(=O)O)C(C)C)[C@@H](C)O)[C@@H](C)CC)C(=O)[C@@H](CCCNC(=N)N)NC(=O)[C@H](CCCNC(=N)N)NC(=O)[C@@H](CCCCN)NC(=O)[C@H](CCCCN)NC(=O)[C@@H](CCCNC(=N)N)NC(=O)CNC(=O)[C@@H](CCCNC(=N)N)NC(=O)[C@H](CCCNC(=N)N)NC(=O)[C@@H](CCCNC(=N)N)NC(=O)CCC(=O)NCCOCCOCCCCCCCl)C(=O)N[C@@H](CCC(=O)O)C(=O)N[C@H](C(=O)N[C@@H](CC(=O)O)C(=O)N[C@H](C(=O)O)C(C)C)[C@@H](C)O [Compound 41] | 180 ± 8.2 |  | 
CC[C@H](C)[C@H](NC(=O)CCOCCOCCN(CCOCCOCCC(=O)N[C@H](C(=O)N[C@@H](CCC(=O)O)C(=O)N[C@H](C(=O)N[C@@H](CC(=O)O)C(=O)N[C@H](C(=O)O)C(C)C)[C@@H](C)O)[C@@H](C)CC)C(=O)[C@H](CCCCN)NC(=O)[C@H](CO)NC(=O)[C@H](Cc1c[nH]cn1)NC(=O)[C@H](C)NC(=O)[C@H](Cc1c[nH]cn1)NC(=O)[C@H](C)NC(=O)[C@H](CCC(N)=O)NC(=O)[C@H](CCCCN)NC(=O)[C@H](CCCNC(=N)N)NC(=O)[C@@H](NC(=O)[C@H](CCCNC(=N)N)NC(=O)[C@H](CCCNC(=N)N)NC(=O)[C@H](CCCNC(=N)N)NC(=O)[C@H](CC(C)C)NC(=O)[C@@H](NC(=O)[C@@H](NC(=O)[C@H](CC(C)C)NC(=O)[C@H](CC(C)C)NC(=O)CCC(=O)NCCOCCOCCCCCCCl)[C@@H](C)CC)[C@@H](C)CC)[C@@H](C)CC)C(=O)N[C@@H](CCC(=O)O)C(=O)N[C@H](C(=O)N[C@@H](CC(=O)O)C(=O)N[C@H](C(=O)O)C(C)C)[C@@H](C)O [Compound 53] | 1.7 ± 0.1 |  | 

The next lines start with results.

CP50 [µM] | Compound | CP50 (CA-tagged NPEG4-(IETDV)2 with various CPP-tags, 4 h at 37° C., mean ± SEM (Table 11, FIG. 8)) [µM] | CP50 (CA-tagged ligands, 4 h at 37° C., L-TAT and L-Arg9, mean ± SEM (Table 10, FIG. 7)) [µM]
1.17 ± 0.37 | CC[C@H](C)[C@H](NC(=O)CCOCCOCCN(CCOCCOCCC(=O)N[C@H](C(=O)N[C@@H](CCC(=O)O)C(=O)N[C@H](C(=O)N[C@@H](CC(=O)O)C(=O)N[C@H](C(=O)O)C(C)C)[C@@H](C)O)[C@@H](C)CC)C(=O)[C@H](CCCNC(=N)N)NC(=O)[C@H](CCCNC(=N)N)NC(=O)[C@H](CCCNC(=N)N)NC(=O)[C@H](CCCNC(=N)N)NC(=O)[C@H](CCCNC(=N)N)NC(=O)CCC(=O)NCCOCCOCCCCCCCl)C(=O)N[C@@H](CCC(=O)O)C(=O)N[C@H](C(=O)N[C@@H](CC(=O)O)C(=O)N[C@H](C(=O)O)C(C)C)[C@@H](C)O [Compound 65] |  | 
0.84 ± 0.15 | CC(C)[C@H](NC(=O)[C@@H](NC(=O)[C@@H](NC(=O)[C@H](CCC(=O)O)NC(=O)[C@@H](NC(=O)CCOCCOCCN(CCOCCOCCC(=O)N[C@H](C(=O)N[C@@H](CCC(=O)O)C(=O)N[C@H](C(=O)N[C@H](C(=O)N[C@H](C(=O)O)C(C)C)C(C)C)[C@@H](C)O)C(C)C)C(=O)[C@H](CCCNC(=N)N)NC(=O)[C@H](CCCNC(=N)N)NC(=O)[C@H](CCCNC(=N)N)NC(=O)[C@H](CCCNC(=N)N)NC(=O)[C@H](CCCNC(=N)N)NC(=O)[C@H](CCCNC(=N)N)NC(=O)[C@H](CCCNC(=N)N)NC(=O)[C@H](CCCNC(=N)N)NC(=O)[C@H](CCCNC(=N)N)NC(=O)CCC(=O)NCCOCCOCCCCCCCl)C(C)C)[C@@H](C)O)C(C)C)C(=O)O [Compound 34] |  | 
3.2 ± 0.5 | CC[C@H](C)[C@H](NC(=O)CCOCCOCCN(CCOCCOCCC(=O)N[C@H](C(=O)N[C@@H](CCC(=O)O)C(=O)N[C@H](C(=O)N[C@@H](CC(=O)O)C(=O)N[C@H](C(=O)O)C(C)C)[C@@H](C)O)[C@@H](C)CC)C(=O)[C@H](CO)NC(=O)[C@H](CCC(=O)O)NC(=O)[C@H](CCCNC(=N)N)NC(=O)[C@H](CCCNC(=N)N)NC(=O)[C@H](CCCNC(=N)N)NC(=O)[C@H](CCCCN)NC(=O)[C@H](CCCCN)NC(=O)[C@H](CCCNC(=N)N)NC(=O)[C@H](CO)NC(=O)[C@H](CCC(=O)O)NC(=O)[C@H](CCCNC(=N)N)NC(=O)[C@H](CCCNC(=N)N)NC(=O)[C@H](CCCNC(=N)N)NC(=O)[C@H](CCCCN)NC(=O)[C@H](CCCCN)NC(=O)[C@H](CCCNC(=N)N)NC(=O)CCC(=O)NCCOCCOCCCCCCCl)C(=O)N[C@@H](CCC(=O)O)C(=O)N[C@H](C(=O)N[C@@H](CC(=O)O)C(=O)N[C@H](C(=O)O)C(C)C)[C@@H](C)O [Compound 51] |  | 
0.78 ± 0.05 | CC(C)C[C@H](NC(=O)[C@@H](NC(=O)[C@H](CCC(=O)O)NC(=O)[C@H](CCCCN)NC(=O)CCOCCOCCN(CCOCCOCCC(=O)N[C@@H](CCCCN)C(=O)N[C@@H](CCC(=O)O)C(=O)N[C@H](C(=O)N[C@@H](CC(C)C)C(=O)N[C@H](C(=O)O)C(C)C)[C@@H](C)O)C(=O)[C@H](CCCNC(=N)N)NC(=O)[C@H](CCCNC(=N)N)NC(=O)[C@H](CCCNC(=N)N)NC(=O)[C@H](CCCNC(=N)N)NC(=O)[C@H](CCCNC(=N)N)NC(=O)[C@H](CCCNC(=N)N)NC(=O)[C@H](CCCNC(=N)N)NC(=O)[C@H](CCCNC(=N)N)NC(=O)[C@H](CCCNC(=N)N)NC(=O)CCC(=O)NCCOCCOCCCCCCCl)[C@@H](C)O)C(=O)N[C@H](C(=O)O)C(C)C [Compound 24] |  | 
1.05 ± 0.15 | CC[C@H](C)[C@H](NC(=O)CCOCCOCCN(CCOCCOCCC(=O)N[C@H](C(=O)N[C@@H](CO)C(=O)N[C@H](C(=O)N[C@@H](CC(=O)O)C(=O)N[C@H](C(=O)O)C(C)C)[C@@H](C)O)[C@@H](C)CC)C(=O)[C@H](CCCNC(=N)N)NC(=O)[C@H](CCCNC(=N)N)NC(=O)[C@H](CCCNC(=N)N)NC(=O)[C@H](CCCNC(=N)N)NC(=O)[C@H](CCCNC(=N)N)NC(=O)[C@H](CCCNC(=N)N)NC(=O)[C@H](CCCNC(=N)N)NC(=O)[C@H](CCCNC(=N)N)NC(=O)[C@H](CCCNC(=N)N)NC(=O)CCC(=O)NCCOCCOCCCCCCCl)C(=O)N[C@@H](CO)C(=O)N[C@H](C(=O)N[C@@H](CC(=O)O)C(=O)N[C@H](C(=O)O)C(C)C)[C@@H](C)O [Compound 32] |  | 
